In PMC10892818, “An Antiherpesviral Host-Directed Strategy Based on CDK7 Covalently Binding Drugs: Target-Selective, Picomolar-Dose, Cross-Virus Reactivity” (Pharmaceutics, 2024):

What was measured:
HCMV UL97-F342S [1] = tested on: HCMV UL97-F342S; set-up: method as in PMID 31940472; key: R-high, high-level drug resistance; R-int, intermediate-level drug resistance; R-low, low-level drug resistance; S, drug sensitivity; details: (for F342Y); cited from earlier work
[2] = Neutral Red uptake assay (NRA), uninfected HFFs; type: cell-based; details: human, read-out: CC50 (VZV-GFP system)
Procedure: The cytotoxic level of the compounds was determined by the use of an established quantitation of cell viability (i.e., Neutral Red uptake assay) performed after 3–7 d of compound incubation on uninfected cells (according to the respective duration of the antiviral reporter-based replication assay performed in parallel) as described earlier in [44].

HCMV UL97-T409M [3] = tested on: HCMV UL97-T409M; set-up: method as in PMID 31940472; key: R-high, high-level drug resistance; R-int, intermediate-level drug resistance; R-low, low-level drug resistance; S, drug sensitivity; details: cited from earlier work
HCMV UL97-M460I [4] = tested on: HCMV UL97-M460I; set-up: method as in PMID 31940472; key: R-high, high-level drug resistance; R-int, intermediate-level drug resistance; R-low, low-level drug resistance; S, drug sensitivity; details: cited from earlier work
HCMV UL97-C480F [5] = tested on: HCMV UL97-C480F; set-up: method as in PMID 31940472; key: R-high, high-level drug resistance; R-int, intermediate-level drug resistance; R-low, low-level drug resistance; S, drug sensitivity; details: cited from earlier work
HCMV UL97-T409M [6] = experiment: HCMV reporter-based antiviral assay, drug-resistant mutant; type: cell-based, human cytomegalovirus; details: Human betaherpesvirus 5, read-out: Measured EC50 ref. drugs UL97-T409M
Procedure: (§1) For the infection experiments, stocks of the following recombinant, reporter protein-expressing viruses (GFP or YFP (i.e., green or yellow fluorescent protein, respectively)) were propagated (in permissive cells), determined in their infectious titers performing the respective reporter assays, stored by aliquots at −80 °C, and used for the assessment of antiviral drug activities: human cytomegalovirus HCMV AD169-GFP (HFFs); murine cytomegalovirus MCMV C3X-GFP (MEFs); guinea pig cytomegalovirus GPCMV v403-GFP (GPEFs); human herpesvirus type 6A HHV-6A U1102-GFP (J-Jhan); herpes simplex virus type 1 HSV-1 166v VP22-GFP (HFFs); varicella zoster virus VZV Oka-GFP (HFFs); Epstein-Barr virus EBV Akata-GFP (Akata-BX1-GFP carrier cells; kindly provided by Lindsey Hutt-Fletcher and Rona Scott, Dept. Microbiol. Immunol., LSUHSC Univ., Shreveport, LA, USA); and Kaposi’s sarcoma-associated herpesvirus KSHV rKSHV.219-GFP/RFP (in iSLK.219 carrier cells).
(§2) For HCMV AD169-GFP infection, the replication assay was based on a seeding of 225,000 HFFs or 13,500 HFFs in 12 well or 96 well plates, respectively, which were then inoculated with HCMV AD169-GFP [55] at an MOI of 0.25 GFP-FU/mL/7 d for a 90 min period of inoculum–cell adsorption, followed by a medium refreshment including the immediate addition of antiviral compounds. At 7 d p.i., the infected HFFs were either directly fixed with 10% formalin for 20 min at 4 °C (when used for infection in the 96 well format) or lysed and transferred to 96 well plates (when used for infection in the 12 well format) so that the reporter of viral replication could be quantified by GFP fluorometry using a Perkin Elmer Victor X4 Multimode Plate Reader (Perkin Elmer, Waltham, MA, USA).
(§3) Due to the fact that the HCMV-encoded protein kinase pUL97 represents a functional and structural ortholog of the host CDKs (vCDK/pUL97), the viral mutants of ORF-UL97 were assessed for sensitivity against CDK7 inhibitors.

HCMV UL97-F342S [7] = experiment: as above; type: cell-based, human cytomegalovirus; details: Human betaherpesvirus 5, read-out: Measured EC50 ref. drugs UL97-F342S
Procedure: as §1, §2, §3

HCMV UL97-C592G [8] = experiment: as above; type: cell-based, human cytomegalovirus; details: Human betaherpesvirus 5, read-out: Measured EC50 ref. drugs UL97-C592G
Procedure: as §1, §2, §3

HCMV UL97-M460I [9] = experiment: as above; type: cell-based, human cytomegalovirus; details: Human betaherpesvirus 5, AD169, read-out: Measured EC50 ref. drugs UL97-M460I
Procedure: as §1, §2, §3

HCMV UL97-L397R [10] = experiment: as above; type: cell-based, human cytomegalovirus; details: Human betaherpesvirus 5, read-out: Measured EC50 ref. drugs UL97-L397R
Procedure: as §1, §2, §3

HCMV UL97-H411Y [11] = experiment: as above; type: cell-based, human cytomegalovirus; details: Human betaherpesvirus 5, read-out: Measured EC50 ref. drugs UL97-H411Y
Procedure: as §1, §2, §3

HCMV UL97-C480F [12] = experiment: as above; type: cell-based, human cytomegalovirus; details: Human betaherpesvirus 5, read-out: Measured EC50 ref. drugs UL97-C480F
Procedure: as §1, §2, §3

HCMV UL97-H520Q = experiment: as above; type: cell-based, human cytomegalovirus; details: Human betaherpesvirus 5, read-out: Measured EC50 ref. drugs UL97-H520Q
Procedure: as §1, §2, §3

HCMV UL97-C603W = experiment: as above; type: cell-based, human cytomegalovirus; details: Human betaherpesvirus 5, read-out: Measured EC50 ref. drugs UL97-C603W
Procedure: as §1, §2, §3

HCMV UL97-H469V = experiment: as above; type: cell-based, human cytomegalovirus; details: Human betaherpesvirus 5, read-out: Measured EC50 ref. drugs UL97-H469V
Procedure: as §1, §2, §3

HCMV UL97-L397R [13] = tested on: HCMV UL97-L397R; set-up: method as in PMID 31940472; key: R-high, high-level drug resistance; R-int, intermediate-level drug resistance; R-low, low-level drug resistance; S, drug sensitivity; details: cited from earlier work
HCMV UL97-H411Y [14] = tested on: HCMV UL97-H411Y; set-up: method as in PMID 31940472; key: R-high, high-level drug resistance; R-int, intermediate-level drug resistance; R-low, low-level drug resistance; S, drug sensitivity; details: cited from earlier work
HCMV UL97-C592G [15] = tested on: HCMV UL97-C592G; set-up: method as in PMID 31940472; key: R-high, high-level drug resistance; R-int, intermediate-level drug resistance; R-low, low-level drug resistance; S, drug sensitivity; details: cited from earlier work

SMILES | Reported phenotype UL97-F342S (HCMV UL97-F342S [1]) | CC50 [2] [nM] | Reported phenotype UL97-T409M (HCMV UL97-T409M [3]) | Reported phenotype UL97-M460I (HCMV UL97-M460I [4]) | Reported phenotype UL97-C480F (HCMV UL97-C480F [5]) | EC50 (HCMV UL97-T409M [6]) [nM] | EC50 (HCMV UL97-F342S [7]) [nM] | EC50 (HCMV UL97-C592G [8]) [nM] | EC50 (HCMV UL97-M460I [9]) [nM] | EC50 (HCMV UL97-L397R [10]) [nM] | EC50 (HCMV UL97-H411Y [11]) [nM] | EC50 (HCMV UL97-C480F [12]) [nM] | EC50 (HCMV UL97-H520Q) [nM] | EC50 (HCMV UL97-C603W) [nM] | EC50 (HCMV UL97-H469V) [nM] | Reported phenotype UL97-L397R (HCMV UL97-L397R [13]) | Reported phenotype UL97-H411Y (HCMV UL97-H411Y [14]) | Reported phenotype UL97-C592G (HCMV UL97-C592G [15])
Nc1ccn(C[C@@H](CO)OCP(=O)(O)O)c(=O)n1 [CDV, cidofovir] | S | > 100000 | S | S | S | 260 | 190 | 400 | 70 | 340 | 420 | 400 | 100 | 410 | 180 | S | S | S
Nc1nc(O)c2ncn(COC(CO)CO)c2n1 [GCV, ganciclovir] | R-high | > 100000 | R-low | R-high | R-int | 1980 ± 200 | 17100 ± 1500 | 4670 ± 1100 | 9240 ± 3300 | 2240 ± 500 | 3760 ± 600 | 10500 ± 2200 | 10700 ± 700 | 9870 ± 1000 | 1220 ± 200 | S | R-low | R-int
